# Results: PMC8602566 (Frontiers in Oncology, 2021)
# Where two headings read alike, the source gives them in different places.
# Columns and labels:
# U87 cells = assay: Cell cycle analysis by flow cytometry; assay type: cell-based, Human; conditions: 2.5 μM, 36 h (control 4.6%)
# Experimental: […] Cells were detached, fixed in 70% ethanol in PBS (−20°C) overnight and resuspended in PBS supplemented with 100 µg/ml RNase and 50 µg/ml PI for 30 min. Cell cycle analysis was performed on a flow cytometry (FACSCalibur BD, BD Biosciences, San Jose, CA, USA).
# Inhibition of HDACs results in anticancer effect through various mechanisms, like cell cycle arrest, reduced proliferation, and induction of apoptosis ([30]). Thus, the cell cycle profile of the human GBM cell line U87 treated with DMC-HA was analyzed by using flow cytometry. […] Although in control cells, only 4.6% of cells were in G2/M phase, 14.5% of cells in G2/M phase were found after treatment with 2.5 μM DMC-HA.
# [1] = test system: Human glioblastoma cell line U87; assay: MTT cell viability assay, U87; assay type: cell-based; conditions: MTT, 72 h, read-out: IC50 antiproliferative activity U87
# Experimental: Human GBM U87 cell line was purchased from the American Type Culture Collection (ATCC). Cells were cultured in Dulbecco’s modified Eagle’s medium (DMEM) supplemented with 10% fetal bovine serum (FBS) and maintained in a 37°C, 5% CO2 incubator. After cells were routinely passaged at 2- to 3-day intervals, experiments were carried out when the cells entered exponential growth phase.
# (§1) Cell viability was measured using the 3-(4,5-dimethylthiazol-2-yl)-2,5-diphenyltetrazolium bromide (MTT) assay and was expressed as a ratio to the absorbance value at 570 nm of the control cells.
# [2] = Hepatic microsome stability assay, rat; assay type: in vitro ADME; conditions: rat liver microsomes, NADPH, 37°C, pH 7.4
# Experimental: Metabolic stability was assessed in the presence of human, mouse, and rat liver microsomes (XenoTech, Lenexa, KS, USA). All liquid dispenses and transfer steps were performed with the Freedom Evo automated liquid handler (Tecan US). Compound stock solutions were initially prepared in 100% DMSO and subsequently diluted in acetonitrile for the assay. The pH of the reactions was kept at 7.4 with potassium phosphate buffer. The reaction wells were prepared by adding microsomes to a well and allowed to warm to 37°C. Then, compound was added to each well. The reactions were […] by adding cofactor reduced nicotinamide adenine dinucleotide phosphate (NADPH) to the reaction well containing microsomes and compounds. Negative controls received buffer only. Immediately after reactions started, 0-min aliquots were promptly collected and mixed in a separate well with ice cold acetonitrile to quench the reactions. The remainder of the reaction volume was incubated at 37°C with shaking. An additional aliquot was collected at 60 min after the start of the reaction and promptly quenched with ice cold acetonitrile. Samples were vortexed and centrifuged at 3,500 rpm for 10 min. The amount of compound in the supernatant was determined by liquid chromatography–tandem mass spectrometry (LC/MS/MS) (Thermo Fischer Scientific, San Jose, CA, USA), and the percent of parent compound remaining after 60 min was calculated. Results are the mean of each reaction triplicate, normalized to the internal standard, and expressed as the percent of compound remaining after the incubation time.
# Structures that are active in vitro may not be potent in vivo due to their susceptibility to metabolism in the body. We then thoroughly examined the liver microsomal metabolic stability of DMC-HA across three different species (Table 3). […] In addition, the half-life of DMC-HA in human microsome is generally two to three times longer than those in mice and rats. Collectively, the in vitro liver microsomal stability of DMC-HA is favorable, guaranteeing its further in vivo studies.
# HDAC10 = HDAC10 (Homo sapiens, UniProt Q969S8); assay: HDACs inhibition assay, HDAC10
# Experimental: (§2) The inhibition assays for HDACs were carried out according to standard protocols. […] The reaction was stopped by the addition of 45 μl of 100 mM HEPES (pH 7.5) and 0.08% sodium dodecyl sulfate (SDS). The substrate and the product were then separated electrophoretically using a LabChip 3000 system (Caliper Life Sciences, Hopkinton, MA) with blue laser excitation and green fluorescence detection.
# [3] = test system: Human leukemia cell line K562; assay: MTT cell viability assay, K562; assay type: cell-based; conditions: K562, MTT, 72 h, read-out: IC50 antiproliferative activity K562
# Experimental: as §1
# HDAC8 = HDAC8 (Homo sapiens, UniProt Q9BY41); assay: HDACs inhibition assay, HDAC8
# Experimental: as §2
# [4] = Pharmacokinetic study in mice; assay type: in vivo, SD mice; conditions: plasma; for Tmax: 10 mg/kg
# Experimental: The animal studies were approved by the Institutional Animal Care and Used Committee. The pharmacokinetic study of DMC-HA was carried out with female SD mice. The compound (2.0 mM) was suspended in DMSO (10%) and Tween 80 (10%) in PBS (80%). A single dose of 1 mg/kg was administrated by intravenous injection (n = 3 mice), followed by blood collection via retro-orbital bleeding at 0.25, 0.5, 2.0, 4.0, 8.0, 12.0, and 24 h. Whole blood samples were added to a tube containing ethylenediaminetetraacetic acid (EDTA) and centrifuged. Plasma was collected and stored at −20°C. Compound standards were prepared with pooled plasma samples. Fifty microliters of thawed plasma and standards were added into wells of Ostro Pass-Through Sample Preparation Plate (Waters) for solid phase extraction. Acetonitrile (150 μl) containing internal standard was added and mixed by pipette. Next, clear sample solution was eluted by positive pressure processor under 60 psi for 5 min. The sample solution can be used directly for LC-MS/MS analysis.
# The preliminary in vivo pharmacokinetic study for DMC-HA was performed in mice. SD mice were intravenously injected with 1 mg/kg DMC-HA or orally administrated with 10 mg/kg DMC-HA. Plasma samples were collected and analyzed with LC-MS/MS.
# [5] = test system: Human glioma cell line SHG44; assay: MTT cell viability assay, SHG44; assay type: cell-based; conditions: SHG-44, MTT, 72 h, read-out: IC50 antiproliferative activity SHG44
# Experimental: as §1
# HDAC6 = HDAC6 (Homo sapiens, UniProt Q9UBN7); assay: HDACs inhibition assay, HDAC6
# Experimental: as §2
# HDAC11 = HDAC11 (Homo sapiens, UniProt Q96DB2); assay: HDACs inhibition assay, HDAC11
# Experimental: as §2
# [6] = female, SD, mouse, iv, i.v. 1 mg/kg
# [7] = female, SD, mouse, po, p.o. 10 mg/kg
# HDAC11, sequence (Q96DB2 whole entry): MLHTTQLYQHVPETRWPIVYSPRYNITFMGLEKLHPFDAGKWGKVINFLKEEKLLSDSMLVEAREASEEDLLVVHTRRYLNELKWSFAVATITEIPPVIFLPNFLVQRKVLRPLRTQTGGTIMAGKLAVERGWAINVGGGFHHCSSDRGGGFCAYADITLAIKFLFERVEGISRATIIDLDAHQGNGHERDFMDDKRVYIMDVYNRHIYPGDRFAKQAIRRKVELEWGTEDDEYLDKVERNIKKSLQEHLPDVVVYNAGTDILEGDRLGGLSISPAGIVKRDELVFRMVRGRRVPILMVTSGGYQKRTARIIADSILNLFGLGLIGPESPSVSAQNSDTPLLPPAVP
# HDAC6, sequence (Q9UBN7 whole entry): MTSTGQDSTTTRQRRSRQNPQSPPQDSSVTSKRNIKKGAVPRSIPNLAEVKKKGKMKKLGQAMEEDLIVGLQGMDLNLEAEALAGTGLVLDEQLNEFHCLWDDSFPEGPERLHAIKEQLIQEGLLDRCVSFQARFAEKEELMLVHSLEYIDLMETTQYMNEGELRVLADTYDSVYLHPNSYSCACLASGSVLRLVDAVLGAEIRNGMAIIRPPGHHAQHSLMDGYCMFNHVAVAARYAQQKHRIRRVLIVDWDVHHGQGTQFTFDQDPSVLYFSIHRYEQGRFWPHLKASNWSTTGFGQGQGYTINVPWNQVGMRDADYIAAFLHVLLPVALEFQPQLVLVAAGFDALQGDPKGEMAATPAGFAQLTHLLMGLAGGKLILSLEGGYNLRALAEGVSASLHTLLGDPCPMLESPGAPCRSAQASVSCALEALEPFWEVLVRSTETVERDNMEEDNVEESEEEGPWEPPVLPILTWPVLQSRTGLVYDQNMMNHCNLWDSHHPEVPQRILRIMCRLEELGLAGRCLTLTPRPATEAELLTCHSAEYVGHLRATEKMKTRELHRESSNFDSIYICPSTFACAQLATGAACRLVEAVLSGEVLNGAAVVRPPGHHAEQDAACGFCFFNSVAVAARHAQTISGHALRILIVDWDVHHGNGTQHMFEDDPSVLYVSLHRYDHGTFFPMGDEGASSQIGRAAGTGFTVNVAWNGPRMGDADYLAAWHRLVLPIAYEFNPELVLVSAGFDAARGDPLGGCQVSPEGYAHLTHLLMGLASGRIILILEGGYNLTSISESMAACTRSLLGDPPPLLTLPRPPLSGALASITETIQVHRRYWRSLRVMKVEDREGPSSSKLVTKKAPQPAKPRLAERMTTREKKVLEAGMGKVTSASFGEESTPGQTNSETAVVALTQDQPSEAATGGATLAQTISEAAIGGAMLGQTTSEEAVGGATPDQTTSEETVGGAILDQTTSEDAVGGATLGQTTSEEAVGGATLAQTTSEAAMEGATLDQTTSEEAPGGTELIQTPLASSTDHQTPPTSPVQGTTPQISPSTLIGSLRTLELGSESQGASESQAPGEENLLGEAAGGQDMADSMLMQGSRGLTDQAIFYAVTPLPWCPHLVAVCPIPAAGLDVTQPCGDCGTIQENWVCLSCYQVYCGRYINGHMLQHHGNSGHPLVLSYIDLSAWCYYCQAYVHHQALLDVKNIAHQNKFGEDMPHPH
# HDAC8, sequence (Q9BY41 whole entry): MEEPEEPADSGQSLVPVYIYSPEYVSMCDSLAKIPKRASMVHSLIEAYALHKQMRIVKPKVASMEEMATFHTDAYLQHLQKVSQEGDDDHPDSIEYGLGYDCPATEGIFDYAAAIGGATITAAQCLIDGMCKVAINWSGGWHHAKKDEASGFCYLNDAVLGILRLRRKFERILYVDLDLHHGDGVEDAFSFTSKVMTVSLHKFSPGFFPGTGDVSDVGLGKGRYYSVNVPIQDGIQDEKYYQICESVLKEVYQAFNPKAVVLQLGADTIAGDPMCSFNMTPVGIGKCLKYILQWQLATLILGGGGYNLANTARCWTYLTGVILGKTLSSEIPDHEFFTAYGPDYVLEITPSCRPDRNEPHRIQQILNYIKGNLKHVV
# HDAC10, sequence (Q969S8 whole entry): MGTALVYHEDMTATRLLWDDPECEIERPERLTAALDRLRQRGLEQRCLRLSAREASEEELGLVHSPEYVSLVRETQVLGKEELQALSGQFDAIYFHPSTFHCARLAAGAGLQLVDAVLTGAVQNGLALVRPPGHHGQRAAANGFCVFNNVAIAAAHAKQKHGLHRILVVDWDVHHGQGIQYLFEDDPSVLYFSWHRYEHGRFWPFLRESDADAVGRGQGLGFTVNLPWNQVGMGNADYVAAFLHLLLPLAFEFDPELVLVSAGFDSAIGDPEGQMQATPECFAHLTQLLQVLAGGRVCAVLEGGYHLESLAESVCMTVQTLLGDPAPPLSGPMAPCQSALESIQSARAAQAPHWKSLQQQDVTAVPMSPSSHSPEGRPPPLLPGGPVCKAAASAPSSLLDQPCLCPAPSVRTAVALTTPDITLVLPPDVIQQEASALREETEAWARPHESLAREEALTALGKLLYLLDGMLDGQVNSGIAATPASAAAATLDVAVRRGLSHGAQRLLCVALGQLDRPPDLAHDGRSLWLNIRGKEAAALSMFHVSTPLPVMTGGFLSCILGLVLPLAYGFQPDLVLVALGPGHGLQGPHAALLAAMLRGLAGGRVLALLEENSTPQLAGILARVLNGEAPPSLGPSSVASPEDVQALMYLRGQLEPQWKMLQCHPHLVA
smiles,measurement,setting,value
COc1cc(/C=C/C(=O)CC(=O)/C=C/c2ccc(/C=C/C(=O)NO)cc2)ccc1O [DMC-HA],cells in G2/M phase,U87 cells,14.5%
same,IC50,[1],2.78 ± 0.81 µM
same,Rat Liver Microsomal Stability T1/2,[2],40.7 min
same,microsomal CLint,[2],34.2 µL/min/mg
same,IC50,HDAC10,8.39 µM
same,IC50,[3],1.95 ± 0.71 µM
same,IC50,HDAC8,2.93 µM
same,AUC(0-inf),[4]; [6],0.502 µg·h/mL
same,AUC(0-t),[4]; [6],0.493 µg·h/mL
same,clearance,[4]; [6],1.8 L/h/kg
same,half-life,[4]; [6],192 min
same,bioavailability,"[4]; female, SD, mouse, oral, p.o. 10 mg/kg vs i.v. 1 mg/kg, read-out: F (oral bioavailability)",40.2%
same,Tmax,"[4]; female, SD, mouse, po, p.o. 10 mg/kg, read-out: Tmax",40.2 min
same,Tmax,"[4]; female, SD, mouse, po, p.o. 10 mg/kg, read-out: time of peak concentration (converted)",~40 min
same,AUC(0-inf),[4]; [7],2.01 µg·h/mL
same,AUC(0-t),[4]; [7],1.98 µg·h/mL
same,Cmax,[4]; [7],1.07 µg/mL
same,half-life,[4]; [7],246 min
same,Cl,[4]; p.o. 10 mg/kg,8.7 L/h/kg
same,peak concentration,[4]; p.o. 10 mg/kg,about 1.0 μg/ml
same,IC50,[5],4.62 ± 0.72 µM
same,IC50,HDAC6,0.38 µM
same,IC50,HDAC11,> 10 µM
